Data as given in US10487348B2, “3-alpha-hydroxysteroid dehydrogenase mutants and process for the preparation of ursodeoxycholic acid” (Pharmazell GmbH, priority 2014, dated 2019).
Changes are numbered by the printed parent chain.

Columns and labels:
[1] = target: T1, Comamonas testosteroni 3α-HSDH, wild type, N-terminal hexahistidine tag (Comamonas testosteroni, UniProt P80702); test: Michaelis-Menten kinetics of wild-type 3α-HSDH with N-terminal His tag; assay type: biochemical; conditions: Table 14, substrate DHCA, apparent values
T1 sequence (P80702 1-257): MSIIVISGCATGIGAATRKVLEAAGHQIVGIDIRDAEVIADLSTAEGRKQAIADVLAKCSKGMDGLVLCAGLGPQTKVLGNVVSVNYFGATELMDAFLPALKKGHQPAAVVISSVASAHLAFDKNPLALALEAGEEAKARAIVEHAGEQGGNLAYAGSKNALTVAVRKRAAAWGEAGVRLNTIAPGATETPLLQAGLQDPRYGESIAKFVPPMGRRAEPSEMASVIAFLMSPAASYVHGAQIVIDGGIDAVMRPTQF
From the text: The His-tag allows for very simple purification of the HSDH protein since this sequence is bound with high specificity by specific chromatographic material (NTA (Ni-nitrilotriacetate)-modified support material, loaded with divalent nickel ions, for example “His Pur Ni-NTA” (Nimagen B. V., Nijmegen, The Netherlands)). To this end, the cell-free crude extract is applied to a dropping column comprising this material, which dropping column has previously been equilibrated with the disruption buffer (3 to 5 column volumes). Weakly binding protein was removed by washing with 3 to 5 column volumes of wash buffer (20 mM imidazole, 50 mM sodium phosphate, 300 mM NaCl, pH 8). The His-tag-3α-HSDH protein was eluted with imidazole-comprising elution buffer (250 mM imidazole, 50 mM sodium phosphate, 300 mM NaCl, pH 8). The process was carried out at room temperature. The imidazole which was present was to be removed by buffer exchange.
The activity of the 3α-HSDH and of the mutants was determined using a photometric assay, where the decrease in absorbance was measured at 340 nm over a period of 30 seconds.
The targeted exchange of amino acid radicals was performed analogously to Example 2B.
Following cultivation and expression, the cells were harvested, and the specific activities of the cell-free crude extracts were determined at substrate concentrations of 10 mM DHCA. […]

[2] = target: T2, Comamonas testosteroni 3α-HSDH mutant [T188S], N-terminal hexahistidine tag (Comamonas testosteroni, UniProt P80702, T188S); test: Kinetics of 3α-HSDH [T188S], N-terminal His tag
T2 sequence (P80702 1-257 T188S): T1 sequence (P80702 1-257) with T188S

[3] = target: T3, Comamonas testosteroni 3α-HSDH mutant [P185A], N-terminal hexahistidine tag (Comamonas testosteroni, UniProt P80702, P185A); test: Kinetics of 3α-HSDH [P185A], N-terminal His tag
T3 sequence (P80702 1-257 P185A): T1 sequence (P80702 1-257) with P185A

[4] = target: T4, Comamonas testosteroni 3α-HSDH, wild type, C-terminal 3×His tag (Comamonas testosteroni, UniProt P80702); test: Michaelis-Menten kinetics of 3α-HSDH with 3×His tag; conditions: His tag length 3; DHCA 10 μM-10 mM; NADH 0.2 mM; purified
T4 sequence (P80702 with tags, fused parts or gaps): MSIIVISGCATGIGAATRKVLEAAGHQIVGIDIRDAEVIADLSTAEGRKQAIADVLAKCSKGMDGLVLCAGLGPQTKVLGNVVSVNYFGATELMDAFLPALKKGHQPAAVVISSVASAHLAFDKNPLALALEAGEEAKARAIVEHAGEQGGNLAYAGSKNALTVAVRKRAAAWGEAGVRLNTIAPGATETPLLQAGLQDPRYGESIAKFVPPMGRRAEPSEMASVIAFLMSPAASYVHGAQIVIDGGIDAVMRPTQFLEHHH
From the text: (§1) The His-tag allows for very simple purification of the HSDH protein since this sequence is bound with high specificity by specific chromatographic material (NTA (Ni-nitrilotriacetate)-modified support material, loaded with divalent nickel ions, for example “His Pur Ni-NTA” (Nimagen B. V., Nijmegen, The Netherlands)). To this end, the cell-free crude extract is applied to a dropping column comprising this material, which dropping column has previously been equilibrated with the disruption buffer (3 to 5 column volumes). Weakly binding protein was removed by washing with 3 to 5 column volumes of wash buffer (20 mM imidazole, 50 mM sodium phosphate, 300 mM NaCl, pH 8). […] The process was carried out at room temperature. The imidazole which was present was to be removed by buffer exchange.
(§2) Following expression (25° C., 0.5 mM, IPTG, 20 hours), the protein was purified, and the expression and the purification were checked by means of an SDS gel. […] The NADH concentration was 0.2 mM. Purified protein was employed in the measurements.

[5] = target: T5, Comamonas testosteroni 3α-HSDH, wild type, C-terminal 9×His tag (SEQ ID NO: 51) (Comamonas testosteroni, UniProt P80702); test: Michaelis-Menten kinetics of 3α-HSDH with 9×His tag
T5 sequence (P80702 with tags, fused parts or gaps): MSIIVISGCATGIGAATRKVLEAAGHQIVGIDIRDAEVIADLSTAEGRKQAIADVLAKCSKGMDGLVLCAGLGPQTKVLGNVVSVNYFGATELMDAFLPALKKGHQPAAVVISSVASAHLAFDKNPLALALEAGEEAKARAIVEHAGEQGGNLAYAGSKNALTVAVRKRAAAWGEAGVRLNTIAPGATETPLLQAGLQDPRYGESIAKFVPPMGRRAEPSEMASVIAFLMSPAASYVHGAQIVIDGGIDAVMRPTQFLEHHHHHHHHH
From the text: as §1, §2

[6] = target: T6, Comamonas testosteroni 3α-HSDH dual mutant [P185A/T188A], N-terminal hexahistidine tag (Comamonas testosteroni, UniProt P80702, P185A/T188A); test: Kinetics of 3α-HSDH [P185A/T188A], N-terminal His tag
T6 sequence (P80702 1-257 P185A/T188A): T1 sequence (P80702 1-257) with P185A, T188A

[7] = Table 14, substrate DHCA, tag N, apparent values
[8] = His tag length 9, DHCA 10 μM-10 mM, NADH 0.2 mM, purified

Compound: C[C@H](CCC(=O)O)[C@H]1CC[C@H]2[C@@H]3C(=O)C[C@@H]4CC(=O)CC[C@]4(C)[C@H]3CC(=O)[C@]12C [DHCA, dehydrocholic acid]
- kcat [1]: 47.1 s⁻¹
- vmax [1]: 98.7 ± 4.7 U/mg
- kcat [2, 7]: 158.2 s⁻¹
- vmax [2, 7]: 332.5 ± 59.9 U/mg
- remaining activity at 20000 µM ([2]; read-out: residual activity): > 20%
- kcat [3, 7]: 48.5 s⁻¹
- vmax [3, 7]: 102.8 ± 5.7 U/mg
- remaining activity at 10000 µM ([3]; read-out: residual activity): 5%
- kcat [4]: 6.5 ± 2.1 s⁻¹
- vmax [4]: 14.3 ± 4.8 U/mg
- KM value better than the variant with 3 histidines ([5]; DHCA, 9 vs 3 histidines): 14 fold
- kcat [5, 8]: 8.9 ± 0.5 s⁻¹
- vmax [5, 8]: 19.2 ± 1.1 U/mg
- kcat [6, 7]: 17.6 s⁻¹
- vmax [6, 7]: 36.9 ± 2.6 U/mg
- remaining activity at 10000 µM ([6]; read-out: residual activity): ~30%
